From publication PMC8653662, “Cytotoxicity and Immunogenicity Evaluation of Synthetic Cell-penetrating Peptides for Methotrexate Delivery” (Iranian Journal of Pharmaceutical Research : IJPR, 2021)
Ends that are not written are not given here. MTX = methotrexate

Assays:
[1] = Zetasizer hydrodynamic size distribution and zeta potential; assay type: physicochemical; conditions: Zetasizer Nano ZS, distilled water pH 7.4, 25 °C, repeated three times
Protocol: The size and morphology of NGRWR peptide and NGRWR-E8 nanoparticles (as representatives) were examined by scanning electron microscopy (SEM, Mira3 FEG-SEM Tescan 5.0 kV). Samples were prepared by drop-casting of a 5 mM aqueous solution (20 µL) onto the mica surface. Then, they were lyophilized, coated with gold, and analyzed with a […] of SEM. Zetasizer Nano ZS (Malvern Instruments, Worcestershire, UK) was employed to examine the mean hydrodynamic diameter, size distribution, and zeta potential of NGRWR peptide and NGRWR-E8 nanoparticles. To this end, the samples were diluted in distilled water (pH 7.4), and the experiment was repeated three times per sample at 25 °C.

Raji cells = experiment: MTT cell viability assay; assay type: cell-based, Human; conditions: for cytotoxicity of CPPs: 5, 10, 25 and 50 μM, 24, 48 and 72 h, 570 nm, mean of three independent experiments in duplicate
Protocol: Human lymphoma cell line (Raji) was cultured in 75 cm^2 cell culture flasks containing RPMI 1640 medium (Gibco), which was supplemented with 10% FBS, 2 mM L-glutamine, 100 units/mL penicillin, and 100 µg/mL streptomycin ([29]). The cell culture was carried out in a humidified atmosphere of 5% CO2, 95% air, and 37 °C. The cell viability of CPPs and peptide-MTX conjugates was determined by MTT assay in Raji cells. […] […] The cell viability was determined by measuring the amount of MTT transformed to formazan salt using an ELISA reader at 570 nm (Bioteck Instruments, Winooski, VT, USA). The results were the means of three independent experiments performed in duplicate.

IL-6 = assay type: cell-based, Human; conditions: Raji cells; LPS 10 μg/mL; 48 h; positive control
Protocol: (§1) As a positive control, cells were incubated with 10 μg/mL of lipopolysaccharide (LPS) to induce IL-6 and TNF-α release. Then, the supernatant was collected and IL-6 and TNF-α secretion was evaluated using standard ELISA kits.

TNF-α = assay type: cell-based, Human; conditions: Raji cells; LPS 10 μg/mL; 48 h; positive control
Protocol: as §1

NGRWRWRWR [linear cell-penetrating peptide …]
size distribution, population of 16% of particles [1]: 50 nm
size distribution, population of 20% of particles [1]: 37 nm
size distribution, population of 21% of particles [1]: 50-250 nm
size distribution, population of 43% of particles [1]: 26 nm
zeta potential [1]: +11 mV
cytotoxicity of CPPs (Raji cells): no significant cytotoxicity

RRRRRR [R6, linear polyarginine peptide RRRRRR]
cytotoxicity of CPPs (Raji cells): no significant cytotoxicity

WKWKWKWK [[WK]4, linear cell-penetrating peptide WKWKWKWK]
cytotoxicity of CPPs (Raji cells): no significant cytotoxicity

WRNGRWR-MTX (WRNGRWR-{MTX})
cytotoxic effect of peptide-MTX conjugates (Raji cells; 25 nM MTX, 48 h after treatment): no significant cytotoxic effect

WRWNGRWRW [WRNGRWR, linear cell-penetrating peptide …]
cytotoxicity of CPPs (Raji cells): no significant cytotoxicity

WRWRWRNGR [linear cell-penetrating peptide …]
cytotoxicity of CPPs (Raji cells): no significant cytotoxicity

WRWRWRWR [[WR]4, linear cell-penetrating peptide WRWRWRWR]
cell viability (Raji cells; 5 μM peptide, 24 h): 40%

WWWWKKKK [W4K4, linear cell-penetrating peptide WWWWKKKK]
cytotoxicity of CPPs (Raji cells): no significant cytotoxicity

WWWWRRRR [W4R4, linear cell-penetrating peptide WWWWRRRR]
cytotoxicity of CPPs (Raji cells): no significant cytotoxicity

lipopolysaccharide [LPS]
IL-6 level enhancement over the control group (IL-6): 100 times
TNF-α level enhancement over the control group (TNF-α): 100 times
